Experiments:
Assay type in all cases: cell-based
[1] = biological target: T1, Ba/F3-Flt3-transfected cells (Homo sapiens, UniProt P36888, cells depend on it, form not given); experiment: Ba/F3-Flt3 (minus IL3) cellular proliferation assay, Alamar Blue
T1 sequence (P36888 1-993): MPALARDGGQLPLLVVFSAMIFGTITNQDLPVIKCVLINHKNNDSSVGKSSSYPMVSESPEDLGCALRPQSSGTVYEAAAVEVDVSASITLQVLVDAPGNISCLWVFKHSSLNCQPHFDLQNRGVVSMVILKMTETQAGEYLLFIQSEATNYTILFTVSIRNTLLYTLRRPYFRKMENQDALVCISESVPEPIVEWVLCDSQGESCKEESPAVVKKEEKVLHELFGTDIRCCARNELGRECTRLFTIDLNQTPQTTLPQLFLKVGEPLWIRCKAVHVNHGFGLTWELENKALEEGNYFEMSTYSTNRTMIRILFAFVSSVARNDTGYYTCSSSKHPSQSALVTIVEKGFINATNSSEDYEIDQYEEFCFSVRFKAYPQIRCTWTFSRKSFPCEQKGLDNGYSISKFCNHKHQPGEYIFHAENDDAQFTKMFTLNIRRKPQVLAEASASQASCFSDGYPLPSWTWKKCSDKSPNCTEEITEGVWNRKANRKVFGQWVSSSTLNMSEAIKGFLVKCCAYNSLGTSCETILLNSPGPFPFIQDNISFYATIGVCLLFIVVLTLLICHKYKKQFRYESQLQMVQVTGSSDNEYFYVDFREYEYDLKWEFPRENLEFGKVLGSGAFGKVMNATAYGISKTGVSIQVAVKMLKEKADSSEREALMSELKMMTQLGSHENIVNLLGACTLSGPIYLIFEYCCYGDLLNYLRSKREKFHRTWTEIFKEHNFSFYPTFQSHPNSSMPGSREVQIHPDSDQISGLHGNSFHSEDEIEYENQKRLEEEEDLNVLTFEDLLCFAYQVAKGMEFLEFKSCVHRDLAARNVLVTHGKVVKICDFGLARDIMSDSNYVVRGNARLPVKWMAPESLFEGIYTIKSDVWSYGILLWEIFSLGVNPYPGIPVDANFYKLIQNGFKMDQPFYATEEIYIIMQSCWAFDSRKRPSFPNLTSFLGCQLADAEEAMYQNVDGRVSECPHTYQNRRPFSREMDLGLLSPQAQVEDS

[2] = biological target: Ba/F3-FGFR3-transfected cells (Homo sapiens, UniProt P22607); experiment: Ba/F3-FGFR3 (minus IL3) cellular proliferation assay, Alamar Blue; conditions: minus IL3, 384 well
Summary of the method: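 Counterscreen adds 10 ng/ml murine IL3, otherwise matching the IL3-free run. In both, FGFR3-transfected Ba/F3 cells (20000 or 10000 per well) incubate with compound for 24 h at 37° C. and 5% CO2; viability is read as resazurin fluorescence (540/590 nm) after 4 h with Alamar Blue.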

[3] = biological target: Ba/F3-FGFR4-transfected cells (Homo sapiens, UniProt P22455); experiment: Ba/F3-FGFR4 cellular proliferation assay, Alamar Blue
Summary of the method: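 Alamar Blue fluorescence (540/590 nm, 4 h development) measured growth of FGFR4-transfected Ba/F3 cells after 24 h compound treatment at 37° C. Cells were seeded at 20000/well in RPMI-1640, 10% FBS.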

Ba/F3-FGFR4-transfected cells, sequence (P22455 whole entry, change not shown): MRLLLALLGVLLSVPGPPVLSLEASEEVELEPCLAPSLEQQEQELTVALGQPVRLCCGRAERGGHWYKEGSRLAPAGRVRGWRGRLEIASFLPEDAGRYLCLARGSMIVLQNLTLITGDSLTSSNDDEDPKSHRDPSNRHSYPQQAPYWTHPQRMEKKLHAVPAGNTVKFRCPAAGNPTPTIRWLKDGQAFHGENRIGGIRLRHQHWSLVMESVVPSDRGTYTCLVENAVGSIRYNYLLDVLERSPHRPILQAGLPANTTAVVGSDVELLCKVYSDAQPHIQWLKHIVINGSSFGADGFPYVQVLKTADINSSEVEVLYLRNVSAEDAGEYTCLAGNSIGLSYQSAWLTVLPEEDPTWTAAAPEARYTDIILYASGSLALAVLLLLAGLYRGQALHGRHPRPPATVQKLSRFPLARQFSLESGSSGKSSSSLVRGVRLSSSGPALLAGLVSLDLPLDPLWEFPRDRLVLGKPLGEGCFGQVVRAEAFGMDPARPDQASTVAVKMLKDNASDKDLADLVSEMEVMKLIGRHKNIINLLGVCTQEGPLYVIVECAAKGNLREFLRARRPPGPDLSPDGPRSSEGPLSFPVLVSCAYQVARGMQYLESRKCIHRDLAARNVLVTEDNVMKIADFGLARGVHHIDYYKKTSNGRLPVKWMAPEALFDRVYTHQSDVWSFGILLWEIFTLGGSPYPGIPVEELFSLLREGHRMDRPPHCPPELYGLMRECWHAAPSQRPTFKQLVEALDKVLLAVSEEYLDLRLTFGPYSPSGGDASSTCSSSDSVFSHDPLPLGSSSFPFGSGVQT
Ba/F3-FGFR3-transfected cells, sequence (P22607 whole entry, change not shown): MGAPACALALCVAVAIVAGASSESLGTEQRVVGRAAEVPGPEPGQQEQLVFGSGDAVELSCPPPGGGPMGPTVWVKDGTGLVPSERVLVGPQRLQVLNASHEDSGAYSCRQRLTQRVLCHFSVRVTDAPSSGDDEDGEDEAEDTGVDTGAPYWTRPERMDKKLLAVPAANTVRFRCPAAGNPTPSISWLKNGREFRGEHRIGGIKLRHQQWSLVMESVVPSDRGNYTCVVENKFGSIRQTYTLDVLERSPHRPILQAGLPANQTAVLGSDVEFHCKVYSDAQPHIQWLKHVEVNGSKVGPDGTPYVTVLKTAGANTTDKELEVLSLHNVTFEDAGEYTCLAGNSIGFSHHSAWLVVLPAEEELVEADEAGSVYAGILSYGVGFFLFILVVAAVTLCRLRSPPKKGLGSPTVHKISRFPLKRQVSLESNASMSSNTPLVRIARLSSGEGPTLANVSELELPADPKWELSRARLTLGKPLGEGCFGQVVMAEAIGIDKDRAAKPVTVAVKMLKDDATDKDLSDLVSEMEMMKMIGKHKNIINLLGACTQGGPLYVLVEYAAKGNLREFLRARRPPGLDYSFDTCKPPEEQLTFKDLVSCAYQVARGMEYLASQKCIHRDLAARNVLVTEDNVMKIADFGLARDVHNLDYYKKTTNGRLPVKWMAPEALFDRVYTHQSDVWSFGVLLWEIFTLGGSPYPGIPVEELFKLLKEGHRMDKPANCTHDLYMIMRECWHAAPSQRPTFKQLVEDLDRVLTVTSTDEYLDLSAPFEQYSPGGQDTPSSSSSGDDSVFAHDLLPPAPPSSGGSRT

Row | SMILES | BAF3-FLT3 (MIN IL3) 384 well pIC50 ([1]; minus IL3) | BAF3-FGFR 3 (MIN IL3) 384 well pIC50 [2] | BAF3-FGFR4 pIC50 [3] | BAF3-FLT3 (MIN IL3) 96 well pIC50 ([1]; minus IL3) | also measured
1 | COc1cc(OC)cc(N(CC(OC(C)=O)C(F)(F)F)c2ccc3ncc(-c4cccnc4)nc3c2)c1 (single isomer, unassigned) [Compound 45] | <5 |  |  |  | 
2 | COc1cc(OC)cc(N(CC(O)C(F)(F)F)c2ccc3ncc(-c4cccnc4)nc3c2)c1 (single isomer, unassigned) [Compound 53] | <5 |  |  |  | 
3 | COc1cc(OC)cc(N(CC(O)C(F)(F)F)c2ccc3ncc(-c4cccnc4)nc3c2)c1 (single isomer, unassigned) [Compound 54] | <5 |  |  |  | 
4 | COc1cc(OC)cc(N(CC(OC(C)=O)C(F)(F)F)c2ccc3ncc(-c4cccnc4)nc3c2)c1 (single isomer, unassigned) [Compound 75] | <5 |  |  |  | 
5 | COCCCN(c1cc(OC)cc(OC)c1)c1ccc2ncc(-c3ccn(C)c3)nc2c1 [Compound 3] | 5.07 | 6.62 | 6.4 |  | 
6 | COCCN(c1cc(OC)cc(OC)c1)c1ccc2ncc(-c3ccn(C)c3)nc2c1 [Compound 6] | <5 | ~6.27 | 5.6 |  | 
7 | COc1cc(OC)cc(N(CCNC(C)C)c2ccc3ncc(-c4ccn(C)c4)nc3c2)c1 [Compound 8] | 5.2 | ~7.69 | 7.2 |  | 
8 | COc1cc(OC)cc(N(CCO)c2ccc3ncc(-c4cccnc4)nc3c2)c1 [Compound 9] | <5 | 6.59 | 5.8 |  | 
9 | COc1cc(OC)cc(N(CCNC(C)C)c2ccc3ncc(-c4cccnc4)nc3c2)c1 [Compound 10] | ~5.01 | 7.53 | 6.6 |  | 
10 | COc1cc(OC)cc(N(CC2CC2)c2ccc3ncc(-c4ccnn4C)nc3c2)c1 [Compound 18] | <5 |  |  | <5 | 
11 | COc1cc(OC)cc(N(CC2CC2)c2ccc3ncc(-c4ccc5c(ccn5C)c4)nc3c2)c1 [Compound 20] |  |  |  |  | BAF3-FLT3 (MIN IL3) 96 well pIC50 ([1]; minus IL3, 96 well): <5; BAF3-FLT3 (MIN IL3) 384 well pIC50 ([1]; minus IL3, 384 well): <5
12 | COc1cc(OC)cc(N(CC2CC2)c2ccc3ncc(-c4cn(C)cn4)nc3c2)c1 [Compound 21] | <5 |  |  | <5 | 
13 | COc1cc(OC)cc(N(CC2CC2)c2ccc3ncc(-c4cc[nH]c4)nc3c2)c1 [Compound 36] | <5 |  |  | <5 | 
14 | COc1cc(OC)cc(N(CC2CC2)c2ccc3ncc(-c4ccn(CCO)c4)nc3c2)c1 [Compound 56] | <5 |  |  | <5 | 
15 | COc1cc(OC)cc(N(CC2CC2)c2ccc3ncc(Nc4cnn(C)c4)nc3c2)c1 [Compound 61] | <5 |  |  | 5.25 | 
16 | COc1cc(OC)cc(N(CCCO)c2ccc3ncc(-c4ccnc(N)c4)nc3c2)c1 [Compound 66] |  | ~7.05 | 6.3 |  | 
17 | COc1cc(OC)cc(N(CC2CC2)c2ccc3ncc(-c4cnn(C)n4)nc3c2)c1 [Compound 70] | <5 |  |  | <5 | 
18 | COc1cc(OC)cc(N(CC2CC2)c2ccc3ncc(-c4cn(C)nn4)nc3c2)c1 [Compound 71] | <5 |  |  | <5 | 
19 | COc1cc(OC)cc(N(CC2CC2)c2ccc3ncc(-c4ccn(C)c4)nc3c2)c1 [Compound 73] | 5.03 |  |  | 5.31 | 
20 | COc1cc(OC)cc(N(CCCO)c2ccc3ncc(-c4cccnc4)nc3c2)c1 [Compound 112] |  | ~6.39 | 5.8 |  | 
21 | COc1cc(OC)cc(N(CCCO)c2ccc3ncc(-c4ccc(C)nc4)nc3c2)c1 [Compound 115] |  | 6.29 | 5.7 |  | 
22 | COc1cc(OC)cc(N(CCCO)c2ccc3ncc(-c4ccc(F)nc4)nc3c2)c1 [Compound 117] |  | 6.25 | 5.5 |  | 

Reference: patent US10052320B2, “Substituted quinoxalines as FGFR kinase inhibitors” (ASTEX THERAPEUTICS LIMITED, priority 2011, dated 2018)
